From the NIST ThermoML archive (doi:10.1021/je100290a)
Numbers after ± are expanded uncertainties.

Columns and labels:
[1] = 101 kPa, Liquid
[2] = xn = mol fraction of the nth substance listed; conditions: 101 kPa, Liquid

NCCN [ethane-1,2-diamine]
[1]
Conditions	mass density [kg/m3]	viscosity [mPa·s]
298.15 K	894.5 ± 2.8	1.276 ± 0.033
303.15 K	890.8 ± 2.8	1.211 ± 0.032
308.15 K	885.6 ± 2.9	1.107 ± 0.029

NCCN [ethane-1,2-diamine] + OCCO
[2]
Conditions	mass density, 298.15 K [kg/m3]	mass density, 303.15 K [kg/m3]	mass density, 308.15 K [kg/m3]	viscosity, 298.15 K [mPa·s]	viscosity, 303.15 K [mPa·s]	viscosity, 308.15 K [mPa·s]
x1 = 0.1027	1096.6 ± 3.6	1089.8 ± 3.7	1084.4 ± 3.7	22.28 ± 0.44	17.6 ± 0.35	14.05 ± 0.29
x1 = 0.1541	1086.6 ± 3.6	1080.9 ± 3.6	1073.8 ± 3.7	25.54 ± 0.5	20.56 ± 0.41	16.93 ± 0.34
x1 = 0.2052	1078.4 ± 3.5	1072.4 ± 3.6	1062.4 ± 3.6	28.37 ± 0.55	22.44 ± 0.44	18.21 ± 0.36
x1 = 0.2561	1068.5 ± 3.5	1062.2 ± 3.5	1053.8 ± 3.6	30.73 ± 0.59	23.15 ± 0.45	19.28 ± 0.38
x1 = 0.3066	1061.4 ± 3.5	1053.5 ± 3.5	1042.9 ± 3.5	31.46 ± 0.61	23.66 ± 0.46	19.2 ± 0.38
x1 = 0.3568	1051 ± 3.4	1042.8 ± 3.5	1033.8 ± 3.5	30.7 ± 0.59	22.85 ± 0.45	18.5 ± 0.37
x1 = 0.4078	1040.4 ± 3.4	1034.8 ± 3.4	1026.6 ± 3.5	28.32 ± 0.55	21.31 ± 0.42	17 ± 0.34
x1 = 0.508	1018.5 ± 3.3	1013.9 ± 3.3	1007.2 ± 3.4	20.17 ± 0.4	15.18 ± 0.31	11.89 ± 0.25
x1 = 0.5579	1006.6 ± 3.2	1000.7 ± 3.3	994.7 ± 3.3	16.06 ± 0.32	12.27 ± 0.25	8.772 ± 0.19
x1 = 0.6065	995.4 ± 3.2	988.3 ± 3.2	981.8 ± 3.3	12.51 ± 0.26	9.748 ± 0.21	6.254 ± 0.14
x1 = 0.6573	983.1 ± 3.1	976.2 ± 3.2	968.7 ± 3.2	9.028 ± 0.19	7.157 ± 0.16	4.674 ± 0.11
x1 = 0.7071	970.1 ± 3.1	964.5 ± 3.1	956.1 ± 3.2	6.882 ± 0.15	5.681 ± 0.13	4.008 ± 0.097
x1 = 0.756	957.3 ± 3	951.7 ± 3.1	944.4 ± 3.1	5.154 ± 0.12	4.177 ± 0.1	3.547 ± 0.086
x1 = 0.8051	946.2 ± 3	938.8 ± 3	931.7 ± 3.1	3.787 ± 0.092	3.154 ± 0.077	2.683 ± 0.066
x1 = 0.8542	933.4 ± 2.9	924.9 ± 3	917.5 ± 3	3.199 ± 0.078	2.552 ± 0.063	2.128 ± 0.053
x1 = 0.9003	919.1 ± 2.9	913.4 ± 2.9	907.2 ± 3	2.273 ± 0.057	1.92 ± 0.048	1.713 ± 0.043
x1 = 0.9438	908.8 ± 2.8	903.4 ± 2.9	897.5 ± 2.9	1.8 ± 0.046	1.561 ± 0.04	1.422 ± 0.037
x1 = 1	894.5 ± 2.8	890.8 ± 2.8	885.6 ± 2.9	1.276 ± 0.033	1.211 ± 0.032	1.107 ± 0.029

OCCO [1,2-ethanediol]
[1]
Conditions	mass density [kg/m3]	viscosity [mPa·s]
298.15 K	–	16.8 ± 0.34
303.15 K	1105.8 ± 3.7	13.4 ± 0.27
308.15 K	–	11.33 ± 0.24

OCCO [1,2-ethanediol] + NCCN
[2], x2 = 0
Conditions	mass density [kg/m3]	viscosity [mPa·s]
298.15 K	–	16.8 ± 0.34
303.15 K	1105.8 ± 3.7	13.4 ± 0.27
308.15 K	–	11.33 ± 0.24
